# Experiments:
# Format in all cases: functional, cell-based
# [1] = target: T1, Oatp3 (Solute carrier organic anion transporter family member 1A5) (Rattus norvegicus, UniProt O88397); assay: TP_TRANSPORTER: inhibition of Fexofenadine uptake (Fexofenadine: 1? uM, Hesperidin: 50 uM) in Oatp3-expressing HeLa cells; design: scale not given: the % may be the effect or the level left; settings: human, HeLa cells that express Oatp3, probe fexofenadine; read-out: Activity
# T1 sequence (O88397 whole entry): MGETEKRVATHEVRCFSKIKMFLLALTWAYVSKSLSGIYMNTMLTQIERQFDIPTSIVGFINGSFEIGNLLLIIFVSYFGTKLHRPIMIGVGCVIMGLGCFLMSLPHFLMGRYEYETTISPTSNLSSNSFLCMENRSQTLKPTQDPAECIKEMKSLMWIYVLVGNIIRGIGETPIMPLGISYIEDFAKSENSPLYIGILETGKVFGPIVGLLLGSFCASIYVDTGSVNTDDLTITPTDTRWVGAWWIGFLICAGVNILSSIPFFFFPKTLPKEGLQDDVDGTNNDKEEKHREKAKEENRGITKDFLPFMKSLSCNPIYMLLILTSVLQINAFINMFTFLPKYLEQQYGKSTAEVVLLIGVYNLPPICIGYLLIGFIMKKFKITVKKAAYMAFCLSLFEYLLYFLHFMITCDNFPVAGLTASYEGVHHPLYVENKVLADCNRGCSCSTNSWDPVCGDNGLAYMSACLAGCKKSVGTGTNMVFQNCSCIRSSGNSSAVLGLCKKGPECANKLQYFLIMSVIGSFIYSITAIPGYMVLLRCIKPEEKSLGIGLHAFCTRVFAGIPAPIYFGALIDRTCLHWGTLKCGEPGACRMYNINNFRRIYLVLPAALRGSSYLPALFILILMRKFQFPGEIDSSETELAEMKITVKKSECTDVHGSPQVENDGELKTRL
# [2] = target: T1, Oatp3 (Solute carrier organic anion transporter family member 1A5); assay: TP_TRANSPORTER: inhibition of Fexofenadine uptake (Fexofenadine: 1? uM, 5-Methoxypsoralen: 50 uM) in Oatp3-expressing HeLa cells; design: scale not given: the % may be the effect or the level left; settings: human, HeLa cells that express Oatp3, probe fexofenadine; read-out: Activity
# [3] = target: T1, Oatp3 (Solute carrier organic anion transporter family member 1A5); assay: TP_TRANSPORTER: inhibition of Fexofenadine uptake (Fexofenadine: 1? uM, 6',7'-Dihydroxybergamottin: 50 uM) in Oatp3-expressing HeLa cells; design: scale not given: the % may be the effect or the level left; settings: human, HeLa cells that express Oatp3, probe fexofenadine; read-out: Activity
# [4] = target: T1, Oatp3 (Solute carrier organic anion transporter family member 1A5); assay: TP_TRANSPORTER: inhibition of Fexofenadine uptake (Fexofenadine: 1? uM, Naringenin: 50 uM) in Oatp3-expressing HeLa cells; design: scale not given: the % may be the effect or the level left; settings: human, HeLa cells that express Oatp3, probe fexofenadine; read-out: Activity
# [5] = target: ATP-dependent translocase ABCB1 (Homo sapiens, UniProt P08183); assay: TP_TRANSPORTER: inhibition of Vinblastine transepithelial transport (basal to apical) (Vinblastine: 5 uM, Grapefruit juice: 5 %) in MDR1-expressing LLC-PK1 cells; settings: pig
# Chain of ATP-dependent translocase ABCB1 (P08183 whole entry): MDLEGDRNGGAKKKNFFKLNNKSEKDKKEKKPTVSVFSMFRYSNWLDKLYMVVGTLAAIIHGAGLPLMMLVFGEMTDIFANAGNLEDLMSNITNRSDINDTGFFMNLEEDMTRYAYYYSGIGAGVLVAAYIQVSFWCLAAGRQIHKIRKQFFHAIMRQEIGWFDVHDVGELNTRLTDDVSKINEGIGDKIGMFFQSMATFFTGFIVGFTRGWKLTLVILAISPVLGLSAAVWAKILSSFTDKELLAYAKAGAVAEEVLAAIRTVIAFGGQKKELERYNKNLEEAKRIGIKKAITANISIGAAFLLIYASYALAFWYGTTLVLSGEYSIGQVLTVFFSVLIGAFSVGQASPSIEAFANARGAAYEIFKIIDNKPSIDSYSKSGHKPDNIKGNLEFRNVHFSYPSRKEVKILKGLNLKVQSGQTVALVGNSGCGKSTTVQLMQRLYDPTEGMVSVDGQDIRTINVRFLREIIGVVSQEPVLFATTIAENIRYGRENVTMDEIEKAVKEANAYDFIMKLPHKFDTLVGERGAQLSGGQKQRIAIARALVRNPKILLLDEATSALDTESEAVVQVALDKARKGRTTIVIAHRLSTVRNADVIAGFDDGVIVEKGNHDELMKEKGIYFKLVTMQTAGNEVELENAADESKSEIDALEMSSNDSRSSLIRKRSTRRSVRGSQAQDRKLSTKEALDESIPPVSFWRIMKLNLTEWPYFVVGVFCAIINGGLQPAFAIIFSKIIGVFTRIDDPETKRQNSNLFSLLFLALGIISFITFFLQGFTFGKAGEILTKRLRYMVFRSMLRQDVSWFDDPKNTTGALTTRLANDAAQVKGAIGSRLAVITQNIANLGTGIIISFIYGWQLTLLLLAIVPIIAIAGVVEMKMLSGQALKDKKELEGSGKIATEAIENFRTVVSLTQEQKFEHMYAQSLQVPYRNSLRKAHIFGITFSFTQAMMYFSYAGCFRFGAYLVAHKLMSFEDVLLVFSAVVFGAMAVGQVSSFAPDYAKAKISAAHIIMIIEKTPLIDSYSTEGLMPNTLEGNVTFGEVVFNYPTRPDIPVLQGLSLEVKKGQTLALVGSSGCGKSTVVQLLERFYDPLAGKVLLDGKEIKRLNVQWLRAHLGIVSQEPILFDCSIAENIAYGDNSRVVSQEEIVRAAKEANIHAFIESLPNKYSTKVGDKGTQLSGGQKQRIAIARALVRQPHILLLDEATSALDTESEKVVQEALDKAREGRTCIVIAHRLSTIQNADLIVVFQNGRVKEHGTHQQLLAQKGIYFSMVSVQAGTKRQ
# [6] = target: T2, Solute carrier organic anion transporter family member 1A1 (Rattus norvegicus, UniProt P46720); assay: TP_TRANSPORTER: inhibition of Fexofenadine uptake (Fexofenadine: 1 uM, Grapefruit juice: 5 %) in Oatp1-expressing HeLa cells; settings: human
# T2 sequence (P46720 whole entry): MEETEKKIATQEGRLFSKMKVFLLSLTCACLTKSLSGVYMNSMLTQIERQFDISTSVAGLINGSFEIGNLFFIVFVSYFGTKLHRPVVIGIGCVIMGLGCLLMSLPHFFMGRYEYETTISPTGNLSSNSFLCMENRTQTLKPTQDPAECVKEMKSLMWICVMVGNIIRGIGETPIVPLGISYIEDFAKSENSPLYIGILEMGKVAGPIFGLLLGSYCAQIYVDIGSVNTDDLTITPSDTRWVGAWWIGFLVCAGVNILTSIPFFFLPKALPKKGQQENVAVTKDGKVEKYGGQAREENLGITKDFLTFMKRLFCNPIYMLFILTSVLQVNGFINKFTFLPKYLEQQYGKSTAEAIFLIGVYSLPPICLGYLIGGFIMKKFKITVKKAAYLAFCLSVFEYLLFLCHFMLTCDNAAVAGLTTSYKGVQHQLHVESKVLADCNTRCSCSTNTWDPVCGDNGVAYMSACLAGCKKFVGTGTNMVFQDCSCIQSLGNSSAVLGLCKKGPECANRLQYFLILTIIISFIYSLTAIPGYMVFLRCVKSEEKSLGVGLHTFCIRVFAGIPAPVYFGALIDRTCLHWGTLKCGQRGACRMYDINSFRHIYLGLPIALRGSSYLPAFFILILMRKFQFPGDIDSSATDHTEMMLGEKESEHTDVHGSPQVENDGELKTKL
# [7] = target: T3, Solute carrier organic anion transporter family member 1A2 (Homo sapiens, UniProt P46721); assay: TP_TRANSPORTER: inhibition of Fexofenadine uptake (Fexofenadine: 1 uM, Grapefruit juice: 5 %) in OATP-A-expressing HeLa cells
# T3 sequence (P46721 whole entry): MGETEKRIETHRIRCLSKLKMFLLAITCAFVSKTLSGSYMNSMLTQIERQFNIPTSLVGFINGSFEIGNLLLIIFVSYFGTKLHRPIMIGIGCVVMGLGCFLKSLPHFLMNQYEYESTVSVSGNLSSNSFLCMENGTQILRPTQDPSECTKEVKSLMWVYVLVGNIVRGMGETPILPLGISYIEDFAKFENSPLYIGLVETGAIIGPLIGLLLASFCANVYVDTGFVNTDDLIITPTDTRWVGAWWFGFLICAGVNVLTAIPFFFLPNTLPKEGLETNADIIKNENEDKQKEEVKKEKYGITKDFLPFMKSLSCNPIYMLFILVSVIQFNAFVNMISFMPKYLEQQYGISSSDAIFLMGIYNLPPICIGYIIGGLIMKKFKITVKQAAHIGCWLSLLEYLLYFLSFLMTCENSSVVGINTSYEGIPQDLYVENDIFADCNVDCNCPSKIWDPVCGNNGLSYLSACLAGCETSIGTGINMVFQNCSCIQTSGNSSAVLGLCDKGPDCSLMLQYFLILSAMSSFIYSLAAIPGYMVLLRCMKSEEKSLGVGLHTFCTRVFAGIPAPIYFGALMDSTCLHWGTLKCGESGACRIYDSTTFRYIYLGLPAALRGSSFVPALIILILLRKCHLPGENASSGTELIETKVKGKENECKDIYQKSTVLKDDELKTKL
# [8] = target: T4, Solute carrier organic anion transporter family member 1A4 (Rattus norvegicus, UniProt O35913); assay: TP_TRANSPORTER: inhibition of Fexofenadine uptake (Fexofenadine: 1 uM, Grapefruit juice: 5 %) in Oatp2-expressing HeLa cells; settings: human
# T4 sequence (O35913 whole entry): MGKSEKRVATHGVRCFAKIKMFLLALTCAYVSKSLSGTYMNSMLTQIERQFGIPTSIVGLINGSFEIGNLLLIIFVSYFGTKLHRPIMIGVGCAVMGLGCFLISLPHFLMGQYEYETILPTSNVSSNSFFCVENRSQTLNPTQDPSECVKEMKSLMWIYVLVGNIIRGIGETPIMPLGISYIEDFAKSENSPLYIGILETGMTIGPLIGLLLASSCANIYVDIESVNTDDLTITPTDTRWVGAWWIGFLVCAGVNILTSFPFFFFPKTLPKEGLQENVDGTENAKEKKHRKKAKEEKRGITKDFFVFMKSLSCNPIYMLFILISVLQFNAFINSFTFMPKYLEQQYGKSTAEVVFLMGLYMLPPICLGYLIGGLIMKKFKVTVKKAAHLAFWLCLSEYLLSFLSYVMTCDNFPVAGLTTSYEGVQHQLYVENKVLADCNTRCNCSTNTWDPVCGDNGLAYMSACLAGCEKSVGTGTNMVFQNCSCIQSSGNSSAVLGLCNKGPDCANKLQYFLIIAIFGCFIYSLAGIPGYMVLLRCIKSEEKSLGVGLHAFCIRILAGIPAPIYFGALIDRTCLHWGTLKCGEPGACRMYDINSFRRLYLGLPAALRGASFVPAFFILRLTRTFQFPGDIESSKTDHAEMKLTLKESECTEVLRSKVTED
# [9] = target: T1, Oatp3 (Solute carrier organic anion transporter family member 1A5); assay: TP_TRANSPORTER: inhibition of Fexofenadine uptake (Fexofenadine: 1? uM, Hesperitin: 5 uM) in Oatp3-expressing HeLa cells; design: scale not given: the % may be the effect or the level left; settings: human, HeLa cells that express Oatp3, probe fexofenadine; read-out: Activity
# [10] = target: T1, Oatp3 (Solute carrier organic anion transporter family member 1A5); assay: TP_TRANSPORTER: inhibition of Fexofenadine uptake (Fexofenadine: 1? uM, Bergamottin: 50 uM) in Oatp3-expressing HeLa cells; design: scale not given: the % may be the effect or the level left; settings: human, HeLa cells that express Oatp3, probe fexofenadine; read-out: Activity
# [11] = target: T2, Solute carrier organic anion transporter family member 1A1; assay: TP_TRANSPORTER: inhibition of Fexofenadine uptake (Fexofenadine: 1 uM, Orange juice: 5 %) in Oatp1-expressing HeLa cells; settings: human
# [12] = target: T3, Solute carrier organic anion transporter family member 1A2; assay: TP_TRANSPORTER: inhibition of Fexofenadine uptake (Fexofenadine: 1 uM, Orange juice: 5 %) in OATP-A-expressing HeLa cells
# [13] = target: T5, Solute carrier organic anion transporter family member 1A5 (Rattus norvegicus, UniProt O88397); assay: TP_TRANSPORTER: inhibition of Fexofenadine uptake (Fexofenadine: 1 uM, Orange juice: 5 %) in Oatp3-expressing HeLa cells; settings: human
# T5 sequence (O88397 whole entry): T1 sequence (O88397 whole entry)
# [14] = target: T4, Solute carrier organic anion transporter family member 1A4; assay: TP_TRANSPORTER: inhibition of Fexofenadine uptake (Fexofenadine: 1 uM, Orange juice: 5 %) in Oatp2-expressing HeLa cells; settings: human
# [15] = target: T2, Solute carrier organic anion transporter family member 1A1; assay: TP_TRANSPORTER: inhibition of Fexofenadine uptake (Fexofenadine: 1 uM, Apple juice: 5 %) in Oatp1-expressing HeLa cells; settings: human
# [16] = target: T5, Solute carrier organic anion transporter family member 1A5; assay: TP_TRANSPORTER: inhibition of Fexofenadine uptake (Fexofenadine: 1 uM, Apple juice: 5 %) in Oatp3-expressing HeLa cells; settings: human
# [17] = target: T1, Oatp3 (Solute carrier organic anion transporter family member 1A5); assay: TP_TRANSPORTER: inhibition of Fexofenadine uptake (Fexofenadine: 1? uM, Quercetin: 5 uM) in Oatp3-expressing HeLa cells; design: scale not given: the % may be the effect or the level left; settings: human, HeLa cells that express Oatp3, probe fexofenadine; read-out: Activity
# [18] = target: T1, Oatp3 (Solute carrier organic anion transporter family member 1A5); assay: TP_TRANSPORTER: inhibition of Fexofenadine uptake (Fexofenadine: 1? uM, Naringin: 5 uM) in Oatp3-expressing HeLa cells; design: scale not given: the % may be the effect or the level left; settings: human, HeLa cells that express Oatp3, probe fexofenadine; read-out: Activity
compound,measurement,setting,value
COc1ccc([C@@H]2CC(=O)c3c(O)cc(O[C@@H]4O[C@H](CO[C@@H]5O[C@@H](C)[C@H](O)[C@@H](O)[C@H]5O)[C@@H](O)[C@H](O)[C@H]4O)cc3O2)cc1O [HESPERIDIN],activity at 50 µM,[1],51%
COc1c2ccoc2cc2oc(=O)ccc12 [BERGAPTEN],activity at 50 µM,[2],32%
C/C(=C\COc1c2ccoc2cc2oc(=O)ccc12)CC[C@@H](O)C(C)(C)O,activity at 50 µM,[3],22%
O=C1C[C@@H](c2ccc(O)cc2)Oc2cc(O)cc(O)c21 [NARINGENIN],activity at 50 µM,[4],10%
GRAPEFRUIT JUICE,Activity,[5],is not an inhibitor [-]
same,Activity,[6],inhibitor [(at a rough estimate) <0 % of control]
same,Activity,[7],inhibitor [(at a rough estimate) 10 % of control]
same,Activity,[8],inhibitor [(at a rough estimate) 20 % of control]
COc1ccc([C@@H]2CC(=O)c3c(O)cc(O)cc3O2)cc1O [HESPERETIN],activity at 5 µM,[9],40%
CC(C)=CCC/C(C)=C/COc1c2ccoc2cc2oc(=O)ccc12 [BERGAMOTTIN],activity at 50 µM,[10],22%
ORANGE JUICE,Activity,[11],inhibitor [(at a rough estimate) 25 % of control]
same,Activity,[12],inhibitor [(at a rough estimate) 10 % of control]
same,Activity,[13],inhibitor [(at a rough estimate) 10 % of control]
same,Activity,[14],inhibitor [(at a rough estimate) <5 % of control]
APPLE JUICE,Activity,[15],inhibitor [(at a rough estimate) 5 % of control]
same,Activity,[16],inhibitor [(at a rough estimate) 5 % of control]
O=c1c(O)c(-c2ccc(O)c(O)c2)oc2cc(O)cc(O)c12 [QUERCETIN],activity at 5 µM,[17],52%
C[C@@H]1O[C@@H](O[C@H]2[C@H](Oc3cc(O)c4c(c3)O[C@H](c3ccc(O)cc3)CC4=O)O[C@H](CO)[C@@H](O)[C@@H]2O)[C@H](O)[C@H](O)[C@H]1O [NARINGIN],activity at 5 µM,[18],36%
